The text below walks through data of US5753623A, “Method of treatment for depression” (Connetics Corporation, priority 1995, dated 1998).

One data set concerns scleroderma patients. Briefly: Monitoring of overall wellbeing in Phase I clinical trials in scleroderma patients. It counts as in vivo, human. The source says:
Recombinant human relaxin (H2) in currently in Phase I human clinical trials in scleroderma patients. Scleroderma is a disease involving an imbalance in tissue reformation giving rise to the overproduction of collagen, and ultimately resulting in swelling and hardening of the skin (and affected organs).
Relaxin is currently the subject of Phase I clinical trials involving scleroderma patients. Scleroderma is a disease involving an imbalance in tissue reformation giving rise to the overproduction of collagen, and ultimately resulting in swelling and hardening of the skin (and affected organs). Part of the clinical testing of relaxin in scleroderma patients included the monitoring of overall wellbeing.

In data set [1] the test system is female subjects after childbirth. Briefly: Clinical trial for treatment of postpartum depression (Example 6). It counts as in vivo, human. Particulars: osmotic pump 50 μg/kg/day subcutaneous from three days after childbirth, three months, versus placebo. Here is the method:
One hundred pregnant female subjects are monitored for relaxin serum concentration during the course of their pregnancy. The subjects are randomized and divided into treatment and control groups. Three days after childbirth, in the treatment group, relaxin is administered by subcutaneous placement of a relaxin-containing osmotic pump delivering 50 μg/kg/day of recombinant human relaxin (H2); in the control group, placebo is administered by subcutaneous placement of a placebo-containing osmotic pump. The subjects are required to maintain a diary documenting their mood (e.g., joy/euphoria/depression/anxiety) over a period of three months following placement of the drug/placebo. The same is documented, along with relaxin serum concentration, by weekly visits to the treating physician.

The next data set deals with patients. Briefly: Relaxin treatment regimen with gradually decreased dosage (Example 5). The class given is in vivo, human. Particulars: about 6 μg/kg, then dosage gradually decreased to minimum dose or zero. As to the method: Relaxin is administered in patient-dependent doses (about 6 μg/kg) sufficient to maintain serum concentrations of at least about 1.0 ng/ml (approximating relaxin concentration during pregnancy).

In data set [2] the test system is patient with severe systemic scleroderma. Briefly: Human antidepressant activity, missed doses and readministration (Example 4). The class given is in vivo. Here is the method:
A patient diagnosed as having severe systemic scleroderma with systemic sclerosis, was undergoing compassionate use therapy with relaxin. They were being treated with 1.5 mg per day of recombinant human relaxin (H2) in a buffered citrate solution adjusted to pH 5.0, divided into six equal doses by subcutaneous injection to achieve a circulating concentration of about 1.0 ng/ml.

Another data set relates to Male Lewis mice. Briefly: Mouse forced swimming wheel model. As to conditions: 50 μg/kg/day subcutaneous, two hours before the test, versus placebo control. It counts as in vivo. As to the method:
This is a modification of the forced swimming wheel test described by Kasahara, et al., Life Sci., 52(22):1741-1749 (1993).
Male Lewis mice are divided into control and treatment groups. Two hours before the test, the control and treatment groups, respectively, receive subcutaneous injections of placebo or 50 μg/kg/day of recombinant human relaxin (H2) formulated as described in allowed U.S. Ser. No. 08/050,745. The mice are individually placed in the swimming wheel and the number of turns of the wheel is recorded for each. Antidepressant activity is indicated by an increased number of turns in the treatment group.

Data set [3] deals with patient with severe systemic scleroderma. Briefly: Human antidepressant activity, dose ranging phase (Example 3). The class given is in vivo. As to conditions: 0.5 mg bolus subcutaneous. Here is the method: A patient diagnosed as having severe systemic scleroderma with systemic sclerosis, was undergoing compassionate use therapy with relaxin. In a dose ranging phase of the therapy, recombinant human relaxin (H2) in a buffered citrate solution adjusted to Ph 5.0 was administered as a bolus subcutaneous injection of 0.5 mg.

Data set [4] is described as follows: Serum relaxin concentrations after single subcutaneous administration to a scleroderma patient. It counts as in vivo, human. As to conditions: 10 μg/kg single subcutaneous injection. Here is the method: FIG. 1 is a graph showing serum relaxin concentration (ng/ml) as measured against time after administration of a single subcutaneous dose of 10 μg/kg to a scleroderma patient.
Relaxin (10 μg/kg) was administered as a single subcutaneous injection to a scleroderma patient. Blood samples were obtained at timed intervals and measured for serum relaxin concentration (ng/ml). Peak serum concentration was attained at about 2 hours post dosing.

A short description of data set [5]: Serum concentrations of relaxin in the ongoing clinical trials. It counts as in vivo, human. Here is the method: While human dosage levels for treating depression have yet to be optimized for relaxin, generally, a daily dose is from about […] of body weight per day, preferably about […] μg/kg, and most preferably about 12.0 to 100.0 μg/kg. Generally it is sought to obtain a serum concentration of relaxin approximating or greater than normal circulating levels in pregnancy, i.e., 1.0 ng/ml, such as 0.5 to 50 ng/ml, preferably 1.0 to 20 ng/ml. […] Thus, for administration to a 70 kg person, the dosage range would be about 7.0 μg to 3.5 mg per day, preferably about […] to 2.1 mg per day, and most preferably about […] per day. The amount of relaxin administered will, of course, be dependent on the subject and the severity of the affliction, the manner and schedule of administration and the judgment of the prescribing physician. One treatment regimen can employ a higher initial dosage level (e.g., 100 to 200 μg/kg/day) followed by decreasing dosages to achieve steady relaxin serum concentration of about 1.0 ng/ml. Another treatment regimen, particularly for postpartum depression, entails administration of an amount of relaxin sufficient to attain normal pregnancy levels of relaxin (about 1.0 ng/ml) followed by gradual decreasing dosages until relaxin serum levels are no longer detectable (e.g., less than about 20 pg/ml), optionally discontinuing treatment upon reaching that dosage level.

As to relaxin, the “effect of discontinuation of therapy on mood” value in the data set on scleroderma patients (discontinuation of therapy) is recorded as “malaise described as best comparable to postpartum depression”. For the same substance, in the data set with scleroderma patients (resumption of treatment), the reversibility of malaise result is given as “reversible upon resumption of treatment”. The mood during treatment entry in the data set with scleroderma patients (treatment of scleroderma with relaxin) is on record as “mood elevations corresponded to peak dosing periods”. Besides, the “signs of postpartum depression” value in data set [1] is reported as “fewer signs of postpartum depression than the subjects in the control group”. Further, the “depression associated with withdrawal” value in the data set with patients was “do not experience depression associated with precipitous withdrawal”. In addition, the “mood after several missed doses” value in data set [2] (1.5 mg per day in six subcutaneous doses, doses inadvertently missed) was “feelings similar to those they had previously experienced in the postpartum period”. The “clearing of the "blues" after readministration” value in data set [2] (1.5 mg per day in six subcutaneous doses, readministration after missed doses) was “cleared within hours of readministration”. Besides, the “episodes of depression during uninterrupted treatment” value in data set [2] (following year, patient not withdrawn from treatment) was “no similar episodes of depression were experienced”. Besides, the “number of turns of the swimming wheel” value in the data set with Male Lewis mice was “increased number of turns as compared to the control group”. The patient-reported mood symptoms entry in data set [3] (about seven hours post dosing) is on record as “significant anxiety/depression-like symptoms”. Further, the relaxin serum concentration entry in data set [3] (about seven hours post dosing, approximated) is on record as “below 1 ng/ml”. In addition, in data set [3] (about two hours post dosing (approximating peak serum concentration)), the patient-reported wellbeing result is reported as “significant improvement in wellbeing”. The “time to peak serum concentration” value in data set [4] is “about 2 hours”. In addition, the serum concentration entry in data set [5] (dosage of about 6.0 μg/kg, printed spread ±0.3) is “about 1.8 ng/ml”; in data set [5] (dosage of about 12.0 μg/kg, printed spread ±0.6), around 3.6 ng/mL; in data set [5] (dosage of about 50 μg/kg, printed spread ±1.6) it was around 11.8 ng/mL.
